Source: patent US12059413B2, “Methods of inhibiting viruses using compositions targeting TSG101-ubiquitin interaction” (The Research Foundation for the State University of New York, priority 2016, dated 2024)

How the values were obtained:
Hela cells = assay: Metabolic activity, WST-1 assay, Hela cells; format: cell-based; details: Homo sapiens, 24 hr in N16, WST-1, read-out: IC50 (95% confidence levels), metabolic activity
Method: FIG. 20A-C. N16 inhibition is virus-specific. A) N16 IC50 for Hela and 293T cells. […] Values were calculated by measuring metabolic activity (WST-1 Assay, Roche Applied Science) after cells were grown for 24 hr in N16. Data points represent the mean of 2 assays, 3 time points each for each cell line. […] Values in the absence or presence of N16 (50 uM) were 12% and 13%, respectively). C) N16 effect on EGF-stimulated EFGR degradation. Cells maintained for 24 hr in media containing DMSO alone or DMSO and N16 were stimulated with EGF ligand for a 90 min period and then assessed for EGFR steady-state level by Western analysis. EGFR levels for unstimulated and stimulated sample pairs are shown. A) n=2; B) n=2; C) n=2.
Cells were grown in 96-well trays for 24 hr with increasing levels of drug, metabolic activity was measured using WST-1colorimetric assay (Roche), and IC50 values were calculated (Prism 6, Graph Pad Software Inc.).

HIV-1 NL4-3 = assay: Specific virus infectivity by MAGI assay; format: cell-based; details: higher concentrations required
Method: FIG. 15A-D. N16 inhibits HIV-1 NL4-3 and Gag VLP production. A) Effect on virus production. Virus particles from N16-treated 293T cells transfected with pNL4-3 as determined by ELISA assay. Top, The compound was added 6 hr prior to DNA transfection and tissue culture media was harvested 24 hr later. Bottom, The compound was added at the indicated concentration 24 hr after DNA transfection and tissue culture media was harvested 24 hr later. Assay values were normalized to that of the DMSO carrier control. B) Effect on virus infectivity. Infectious viral particles per ng p24 as determined by MAGI assay. C) Left, Electron microscopy of particles at cell surface at 24 hr post-N16 addition; Right, Quantitative analysis of budding morphologies. […] Bottom, Quantitative analysis. […]
For production of virus particles, 293T cells were transfected with pNL4-3-ΔEnv and pIIIB Env3-1 plasmids and for virus-like particles (VLP), with pCMV-Gag-HA as previously described (Watanabe et al. (2013)). For specific infectivity, media-associated p24 was determined by ELISA (Immunodiagnostics, Inc.) and equivalent amounts of p24 were used to infect HeLa-CD4+-LTR-3 gal cells for infectivity measurement by the multinuclear activation of a galactosidase indicator (MAGI) assay. […] Virus particle release efficiency was calculated [VLP signal intensity/(VLP signal intensity+cell lysate signal intensity)]. […]

Plasma level in humans = format: in vivo, human; details: equivalent of the plasma level
Source text: Targeting of the Gag-Tsg101 interaction for inhibition of HIV budding has been an active field over the last fifteen years, mostly focusing on interference with PTAP binding (Tavassoli, A. et al. (2008); Chen, H., et al. (2010); Kim, S. E. et al. (2011); Lu, J. et al. (2014)). Theoretically, a synthetic peptide that mimics the PTAP motif could compete for the PTAP binding pocket of Tsg101 in cells. […]; Liu, F. et al. (2008)). Although high-resolution structures for the highest affinity complexes have not yet been elucidated, docking studies indicate that these PTAP inhibitors bind to the hydrophobic surface of Tsg101 around residue T56 (Kim, S. E. et al. (2011)). […]. […] Indeed, the dose of N16 provided is 40 milligrams. Seven microgram/ml is achieved in human plasma (Hunt, R. H. et al. (2005)), a level that is equivalent to a 20 micromolar concentration of the drug. The lowest concentration that we achieved in tissue culture assays when N16 was provided under the optimal conditions described in the text (c.f FIG. 15) was 25-50 micromolar. The current availability of the F15/N16 compounds in diverse long-acting slow-release formulations is another feature adaptable to further refined development of the F15/N16 compounds that could address issues pertaining to drug regimen adherence. […]

Structure (SMILES): COc1ccc2[nH]c([S+]([O-])Cc3ncc(C)c(OC)c3C)nc2n1 (stereo not drawn) [N16, tenatoprazole]
- IC50 (Hela cells): 156 to 205 µM
- specific infectivity of the virus (HIV-1 NL4-3): diminished in dose-dependent fashion
- plasma level, equivalent concentration (Plasma level in humans): 20 µM
